# Source: PubChem BioAssay (NCI)
#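 In this assay, cells in 96-well plates receive the compound at five concentrations for 48 hours. Endpoints are linearly interpolated between the surrounding concentrations. Abbreviation: GI50, concentration required for 50% inhibition of growth. TGI is the concentration that stops growth completely.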
# What was measured:
# Assay in all cases: inhibition of tumour cell growth, NCI panel, 48 h
# MCF7 breast = test system: MCF7 breast
# SF-539 CNS = test system: SF-539 CNS
# SF-295 CNS = test system: SF-295 CNS
# CCRF-CEM leukemia = test system: CCRF-CEM leukemia
# UACC-62 melanoma = test system: UACC-62 melanoma
# SF-268 CNS = test system: SF-268 CNS
# NCI-H522 lung = test system: NCI-H522 lung
# OVCAR-4 ovarian = test system: OVCAR-4 ovarian
# M14 melanoma = test system: M14 melanoma
# MDA-MB-468 breast = test system: MDA-MB-468 breast
# A498 renal = test system: A498 renal
# MDA-MB-435 = test system: MDA-MB-435
# SNB-75 CNS = test system: SNB-75 CNS
# SK-MEL-5 melanoma = test system: SK-MEL-5 melanoma
# RPMI-8226 leukemia = test system: RPMI-8226 leukemia
# HCT-116 colon = test system: HCT-116 colon
# SK-MEL-28 melanoma = test system: SK-MEL-28 melanoma
# NCI-H460 lung = test system: NCI-H460 lung
# DU-145 prostate = test system: DU-145 prostate
# SNB-19 CNS = test system: SNB-19 CNS
# CAKI-1 renal = test system: CAKI-1 renal
# KM12 colon = test system: KM12 colon
# HOP-62 NSCLC = test system: HOP-62 NSCLC
# TK-10 renal = test system: TK-10 renal
# MALME-3M melanoma = test system: MALME-3M melanoma
# HCC-2998 colon = test system: HCC-2998 colon
# MOLT-4 leukemia = test system: MOLT-4 leukemia
# NCI-H23 lung = test system: NCI-H23 lung
# SK-OV-3 ovarian = test system: SK-OV-3 ovarian
# OVCAR-8 ovarian = test system: OVCAR-8 ovarian
# HS 578T breast = test system: HS 578T breast
# T-47D breast = test system: T-47D breast
# RXF 393 renal = test system: RXF 393 renal
# K-562 leukemia = test system: K-562 leukemia
# COLO 205 colon = test system: COLO 205 colon
# MDA-MB-231 breast = test system: MDA-MB-231 breast
# A549 NSCLC = test system: A549 NSCLC
# ACHN renal = test system: ACHN renal
# EKVX NSCLC = test system: EKVX NSCLC
# U251 CNS = test system: U251 CNS
# HT29 colon = test system: HT29 colon
# BT-549 breast = test system: BT-549 breast
# IGROV1 ovarian = test system: IGROV1 ovarian
# OVCAR-3 ovarian = test system: OVCAR-3 ovarian
# 786-0 renal = test system: 786-0 renal
# HOP-92 NSCLC = test system: HOP-92 NSCLC
# HL-60(TB) leukemia = test system: HL-60(TB) leukemia
# OVCAR-5 ovarian = test system: OVCAR-5 ovarian
# SN12C renal = test system: SN12C renal
# SR leukemia = test system: SR leukemia
# SW-620 colon = test system: SW-620 colon
# LOX IMVI melanoma = test system: LOX IMVI melanoma
# UACC-257 melanoma = test system: UACC-257 melanoma
# PC-3 prostate = test system: PC-3 prostate
# HCT-15 colon = test system: HCT-15 colon
# UO-31 renal = test system: UO-31 renal
# SK-MEL-2 melanoma = test system: SK-MEL-2 melanoma
# NCI-H226 lung = test system: NCI-H226 lung
compound,measurement,setting,value
O=c1[nH]n(C(=S)N/N=C/c2ccccc2Cl)c(=O)c2ccccc12,GI50,MCF7 breast,2.4 µM
same,TGI,MCF7 breast,11.3 µM
same,GI50,SF-539 CNS,2.56 µM
same,TGI,SF-539 CNS,6.26 µM
same,GI50,SF-295 CNS,2.48 µM
same,TGI,SF-295 CNS,6.79 µM
same,GI50,CCRF-CEM leukemia,2.29 µM
same,TGI,CCRF-CEM leukemia,7.56 µM
same,GI50,UACC-62 melanoma,2.91 µM
same,TGI,UACC-62 melanoma,12.4 µM
same,GI50,SF-268 CNS,3.36 µM
same,TGI,SF-268 CNS,13.8 µM
same,GI50,NCI-H522 lung,2.06 µM
same,TGI,NCI-H522 lung,5.4 µM
same,GI50,OVCAR-4 ovarian,4.46 µM
same,TGI,OVCAR-4 ovarian,16.6 µM
same,GI50,M14 melanoma,2.96 µM
same,TGI,M14 melanoma,11.4 µM
same,GI50,MDA-MB-468 breast,1.83 µM
same,TGI,MDA-MB-468 breast,4.46 µM
same,GI50,A498 renal,3.66 µM
same,TGI,A498 renal,12.1 µM
same,GI50,MDA-MB-435,2.88 µM
same,TGI,MDA-MB-435,12.8 µM
same,GI50,SNB-75 CNS,2.08 µM
same,TGI,SNB-75 CNS,8.43 µM
same,GI50,SK-MEL-5 melanoma,3.03 µM
same,TGI,SK-MEL-5 melanoma,11.9 µM
same,GI50,RPMI-8226 leukemia,2.44 µM
same,TGI,RPMI-8226 leukemia,7.83 µM
same,GI50,HCT-116 colon,3.44 µM
same,TGI,HCT-116 colon,14.1 µM
same,GI50,SK-MEL-28 melanoma,4.6 µM
same,TGI,SK-MEL-28 melanoma,16.1 µM
same,GI50,NCI-H460 lung,2.11 µM
same,TGI,NCI-H460 lung,5.85 µM
same,GI50,DU-145 prostate,3.84 µM
same,TGI,DU-145 prostate,14.5 µM
same,GI50,SNB-19 CNS,3.87 µM
same,TGI,SNB-19 CNS,14.3 µM
same,GI50,CAKI-1 renal,3.7 µM
same,TGI,CAKI-1 renal,15.5 µM
same,GI50,KM12 colon,3.34 µM
same,TGI,KM12 colon,12.5 µM
same,GI50,HOP-62 NSCLC,3.14 µM
same,TGI,HOP-62 NSCLC,10.8 µM
same,GI50,TK-10 renal,5.05 µM
same,TGI,TK-10 renal,17.3 µM
same,GI50,MALME-3M melanoma,5.64 µM
same,TGI,MALME-3M melanoma,18.5 µM
same,GI50,HCC-2998 colon,2.27 µM
same,TGI,HCC-2998 colon,4.79 µM
same,GI50,MOLT-4 leukemia,1.82 µM
same,TGI,MOLT-4 leukemia,5.16 µM
same,GI50,NCI-H23 lung,1.97 µM
same,TGI,NCI-H23 lung,4.56 µM
same,GI50,SK-OV-3 ovarian,4.82 µM
same,TGI,SK-OV-3 ovarian,16.1 µM
same,GI50,OVCAR-8 ovarian,2.08 µM
same,TGI,OVCAR-8 ovarian,5.48 µM
same,GI50,HS 578T breast,2.65 µM
same,TGI,HS 578T breast,9.55 µM
same,GI50,T-47D breast,2.55 µM
same,TGI,T-47D breast,8.92 µM
same,GI50,RXF 393 renal,2.58 µM
same,TGI,RXF 393 renal,7.71 µM
same,GI50,K-562 leukemia,2.62 µM
same,TGI,K-562 leukemia,10.6 µM
same,GI50,COLO 205 colon,2.82 µM
same,TGI,COLO 205 colon,7.73 µM
same,GI50,MDA-MB-231 breast,2.99 µM
same,TGI,MDA-MB-231 breast,8.61 µM
same,GI50,A549 NSCLC,2.93 µM
same,TGI,A549 NSCLC,10.7 µM
same,GI50,ACHN renal,3.64 µM
same,TGI,ACHN renal,12.8 µM
same,GI50,EKVX NSCLC,2.73 µM
same,TGI,EKVX NSCLC,10.8 µM
same,GI50,U251 CNS,2.87 µM
same,TGI,U251 CNS,10.4 µM
same,GI50,HT29 colon,3.96 µM
same,TGI,HT29 colon,13.2 µM
same,GI50,BT-549 breast,3.11 µM
same,TGI,BT-549 breast,11.9 µM
same,GI50,IGROV1 ovarian,3.42 µM
same,TGI,IGROV1 ovarian,11.5 µM
same,GI50,OVCAR-3 ovarian,3.36 µM
same,TGI,OVCAR-3 ovarian,12.8 µM
same,GI50,786-0 renal,4.43 µM
same,TGI,786-0 renal,16 µM
same,GI50,HOP-92 NSCLC,2.41 µM
same,TGI,HOP-92 NSCLC,7.29 µM
same,GI50,HL-60(TB) leukemia,1.65 µM
same,TGI,HL-60(TB) leukemia,4.5 µM
same,GI50,OVCAR-5 ovarian,3.56 µM
same,TGI,OVCAR-5 ovarian,10.6 µM
same,GI50,SN12C renal,3.01 µM
same,TGI,SN12C renal,10.1 µM
same,GI50,SR leukemia,1.86 µM
same,TGI,SR leukemia,5.08 µM
same,GI50,SW-620 colon,3.01 µM
same,TGI,SW-620 colon,10.5 µM
same,GI50,LOX IMVI melanoma,2.87 µM
same,TGI,LOX IMVI melanoma,10.4 µM
same,GI50,UACC-257 melanoma,4.1 µM
same,TGI,UACC-257 melanoma,16.8 µM
same,GI50,PC-3 prostate,4.89 µM
same,TGI,PC-3 prostate,17.9 µM
same,GI50,HCT-15 colon,2.24 µM
same,TGI,HCT-15 colon,6.36 µM
same,GI50,UO-31 renal,3.78 µM
same,TGI,UO-31 renal,15 µM
same,GI50,SK-MEL-2 melanoma,1.85 µM
same,TGI,SK-MEL-2 melanoma,4.19 µM
same,GI50,NCI-H226 lung,2.88 µM
same,TGI,NCI-H226 lung,8.54 µM
